Measurements as given in patent publication US20030143729A1 (Synaptic Pharmaceutical Corporation, priority 1992, published 2003).
“And” between values parts separate entries of the source, which are not always exact repeats. Equal entries are not always repeated. Where two headings read alike, the source gives them in different places.

Tests used:
GAT-1 = molecular target: T1, GAT-1 (Rattus norvegicus, UniProt P23978); test: [3H]GABA uptake by COS-7 cells transfected with GAT-1 (rB46a); type: cell-based
T1 construct: expressed in transfected cells; host or cells: COS-7 cells, transient (DEAE-dextran)

human GAT-3 = molecular target: T2, human GAT-3 (Homo sapiens, UniProt P48066); details: 50 nM [3H]GABA
T2 sequence (P48066 1-632): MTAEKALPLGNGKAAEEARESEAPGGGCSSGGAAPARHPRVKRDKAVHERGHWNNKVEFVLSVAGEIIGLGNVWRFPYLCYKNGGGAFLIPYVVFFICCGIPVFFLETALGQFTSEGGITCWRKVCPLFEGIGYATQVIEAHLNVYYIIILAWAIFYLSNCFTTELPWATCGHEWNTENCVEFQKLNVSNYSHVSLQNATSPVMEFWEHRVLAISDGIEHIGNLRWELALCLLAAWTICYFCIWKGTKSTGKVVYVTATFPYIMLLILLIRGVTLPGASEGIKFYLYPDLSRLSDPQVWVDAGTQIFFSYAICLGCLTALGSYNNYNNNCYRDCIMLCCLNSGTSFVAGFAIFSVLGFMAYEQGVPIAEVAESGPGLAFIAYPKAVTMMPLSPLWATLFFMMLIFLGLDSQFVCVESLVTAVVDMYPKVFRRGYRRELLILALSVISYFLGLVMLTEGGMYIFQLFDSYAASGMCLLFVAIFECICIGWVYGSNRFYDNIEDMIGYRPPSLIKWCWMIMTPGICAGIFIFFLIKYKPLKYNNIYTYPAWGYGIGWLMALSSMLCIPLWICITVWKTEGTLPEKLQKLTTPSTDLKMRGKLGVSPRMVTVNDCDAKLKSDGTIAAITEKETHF
Procedure: (§1) Cells were grown under standard conditions (37° C., 5% CO2) in Dulbecco's modified Eagles's medium (GIBCO, Grand Island, N.Y.).
(§2) Cells grown in 24-well plates were washed 3× with HEPES-buffered saline (HBS, in mM: NaCl, 150; HEPES, 20; CaCl2, 1; glucose, 10; KCl, 5; MgCl2, 1; pH 7.4) and allowed to equilibrate on a 37° C. slide warmer. After 10 minutes the medium was removed and unlabeled drugs in HBS were added (450 μl/well). […] Plates were incubated at 37° C. for 10 minutes, then washed rapidly 3× with ice-cold HBS, using a 24-position plate washer (Brandel, Gaithersburg, Mass.; model PW-12). Cells were solubilized with 0.05% sodium deoxycholate/0.1N NaOH (0.25 ml/well), an aliquot neutralized with 1N HCl, and radioactivity was determined by scintillation counting. Protein was quantified in an aliquot of the solubilized cells using a BIO-RAD protein assay kit, according to the manufacturer's directions.
(§3) Lipophilic inhibitors were dissolved in DMSO.
(§4) Data Analysis: Competition curves were conducted in duplicate, using 10 concentrations of unlabeled drug.

[1] = molecular target: T3, taurine transporter (rB16a) (Rattus norvegicus, UniProt P31643); test: [3H]taurine uptake by COS-7 cells transfected with rB16a; details: for inhibition at 10 µM: COS-7, read-out: % Inhibition of [3H]taurine uptake, rB16a, inhibitor 10 μM; for inhibition at 10 µM / inhibition at 100 µM / inhibition at 1000 µM / % Inhibition of [3H]taurine uptake, rB16a: 50 nM [3H]taurine, 10 minutes, 37° C.; for inhibition at 100 µM: COS-7, read-out: % Inhibition of [3H]taurine uptake, rB16a, inhibitor 100 μM; for inhibition at 1000 µM: COS-7, read-out: % Inhibition of [3H]taurine uptake, rB16a, inhibitor 1 mM
T3 sequence (P31643 1-621): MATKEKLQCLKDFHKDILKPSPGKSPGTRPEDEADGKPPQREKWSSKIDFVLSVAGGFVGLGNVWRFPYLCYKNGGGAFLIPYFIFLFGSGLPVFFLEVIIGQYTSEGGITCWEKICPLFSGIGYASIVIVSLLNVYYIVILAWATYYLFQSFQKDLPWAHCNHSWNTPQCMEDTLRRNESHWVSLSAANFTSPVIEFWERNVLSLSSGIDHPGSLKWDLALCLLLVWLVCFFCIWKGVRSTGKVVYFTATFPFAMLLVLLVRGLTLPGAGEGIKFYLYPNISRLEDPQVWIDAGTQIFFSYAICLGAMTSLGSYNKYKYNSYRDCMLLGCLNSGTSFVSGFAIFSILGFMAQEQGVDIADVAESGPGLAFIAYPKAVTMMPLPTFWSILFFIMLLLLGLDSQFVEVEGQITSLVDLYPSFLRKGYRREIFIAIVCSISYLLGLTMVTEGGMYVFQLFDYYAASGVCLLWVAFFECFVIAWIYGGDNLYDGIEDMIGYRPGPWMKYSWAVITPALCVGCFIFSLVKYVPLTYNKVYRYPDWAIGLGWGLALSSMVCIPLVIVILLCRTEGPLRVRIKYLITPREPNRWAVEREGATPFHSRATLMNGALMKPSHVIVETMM
Procedure: Transient transfections of COS cells with the plasmid pEVJB-rB16a were carried out using DEAE-dextran with DMSO according to the method of Lopata et al. (58) with minor modifications. COS cells were grown (37° C., 5%CO2) in high glucose Dulbecco's modified Eagle medium supplemented with 10% bovine calf serum, 100 U/ml penicillin G, and 100 μg/ml streptomycin sulfate. Cells were routinely used two days after transfection for transport studies.
Plates were incubated at 37° C. for 10 minutes unless indicated otherwise, then washed rapidly 3× with ice cold HBS. Cells were solubilized with 0.05% sodium deoxycholate/0.1N NaOH), an aliquot was neutralized with 1N HCl, and radioactivity was determined by scintillation counting. Protein was quantified in an aliquot of the solubilized cells using a BIO-RAD protein assay kit, according to the manufacturer's directions.

rat GAT-2 = molecular target: T4, rat GAT-2 (Rattus norvegicus, UniProt P31646)
T4 sequence (P31646 1-602): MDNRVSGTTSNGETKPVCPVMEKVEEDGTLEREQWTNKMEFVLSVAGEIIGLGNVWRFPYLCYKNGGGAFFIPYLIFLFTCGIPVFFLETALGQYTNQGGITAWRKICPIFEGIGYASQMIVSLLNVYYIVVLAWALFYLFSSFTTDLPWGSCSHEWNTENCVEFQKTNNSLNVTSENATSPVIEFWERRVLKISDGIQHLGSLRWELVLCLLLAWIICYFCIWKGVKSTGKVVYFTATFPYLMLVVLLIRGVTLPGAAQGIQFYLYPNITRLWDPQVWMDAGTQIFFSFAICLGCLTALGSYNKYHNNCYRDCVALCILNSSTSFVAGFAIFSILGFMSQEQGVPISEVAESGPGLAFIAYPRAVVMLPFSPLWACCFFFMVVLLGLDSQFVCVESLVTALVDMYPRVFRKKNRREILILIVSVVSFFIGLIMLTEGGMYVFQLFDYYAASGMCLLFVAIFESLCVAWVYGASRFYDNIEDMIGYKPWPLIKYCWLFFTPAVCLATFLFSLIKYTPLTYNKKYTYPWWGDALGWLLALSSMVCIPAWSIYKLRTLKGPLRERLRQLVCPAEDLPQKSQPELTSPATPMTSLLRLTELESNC
Procedure: as §1, §2, §3, §4

rat GAT-1 = rat GAT-1 (Rattus norvegicus, UniProt P23978); details: for IC50: read-out: IC50 for inhibition of [3H]GABA uptake, rGAT-1 (Table 8)
Procedure: as §2, §3, §4
COS cells grown in 75 cm^2 or 150 cm^2 flasks in DMEM with 10% bovine calf serum, 100 U/ml penicillin G, and 100 μg/ml streptomycin sulfate (37° C., 5% CO2) were transfected using DEAE-dextran. On the day following transfection the cells were split into 24-well assay plates coated with poly-D-lysine (10 μg/ml), and transport was measured 24 hours later.
After 10 minutes the medium was removed and unlabeled drugs in HBS were added (450 μl/well). […] Plates were incubated at 37° C. for 10 minutes, then washed rapidly 3× with ice-cold HBS, using a 24-position plate washer (Brandel, Gaithersburg, Mass.; model PW-12). Cells were solubilized with 0.05% sodium deoxycholate/0.1N NaOH (0.25 ml/well), an aliquot neutralized with 1N HCl, and radioactivity was determined by scintillation counting. Protein was quantified in an aliquot of the solubilized cells using a BIO-RAD protein assay kit, according to the manufacturer's directions.

hBGT-1 = molecular target: T5, hBGT-1 (Homo sapiens, UniProt P48065); test: cell-based
T5 sequence (P48065 1-614): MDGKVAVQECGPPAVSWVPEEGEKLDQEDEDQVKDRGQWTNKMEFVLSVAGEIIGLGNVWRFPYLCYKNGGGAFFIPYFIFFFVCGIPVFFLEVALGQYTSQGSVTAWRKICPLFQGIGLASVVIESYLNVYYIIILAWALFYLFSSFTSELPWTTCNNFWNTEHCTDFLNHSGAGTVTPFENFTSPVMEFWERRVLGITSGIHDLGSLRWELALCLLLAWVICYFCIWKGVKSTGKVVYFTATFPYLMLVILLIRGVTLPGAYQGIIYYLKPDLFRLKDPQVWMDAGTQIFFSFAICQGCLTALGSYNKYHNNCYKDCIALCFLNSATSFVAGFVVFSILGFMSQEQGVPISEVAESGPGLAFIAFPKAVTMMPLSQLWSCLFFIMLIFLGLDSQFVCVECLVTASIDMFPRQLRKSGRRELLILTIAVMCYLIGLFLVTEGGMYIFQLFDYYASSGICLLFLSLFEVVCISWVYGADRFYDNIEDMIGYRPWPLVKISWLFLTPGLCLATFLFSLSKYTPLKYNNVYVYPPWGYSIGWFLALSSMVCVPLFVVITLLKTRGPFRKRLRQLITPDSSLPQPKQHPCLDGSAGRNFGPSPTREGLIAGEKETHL
Procedure: as §1, §2, §3, §4

[2] = COS-7, read-out: % Inhibition of [3H]GABA uptake, GAT-1
[3] = IC50 for inhibition of [3H]GABA uptake, human GAT-3, stable cell line

% Inhibition of [3H]taurine uptake, rB16a ([1]; inhibitor 1 mM) | Compound | inhibition at 100 µM (GAT-1; [2]) [%] | inhibition at 10 µM [1] [%] | inhibition at 100 µM [1] [%] | inhibition at 1000 µM [1] [%] | % Inhibition of [3H]taurine uptake, rB16a ([1]; inhibitor 10 μM) | % Inhibition of [3H]taurine uptake, rB16a ([1]; inhibitor 100 μM) | further results
– | N[C@@H]1CCC[C@H](C(=O)O)C1 (relative stereo) [ACHC, cis-3-aminocyclohexanecarboxylic acid] | 49 ± 10 | – | – | – | – | – | –
44 ± 6 (8) % | NCCCC(=O)O [GABA, gamma-aminobutyric acid] | – | 9 ± 6 | ~10 | ~40 | – | – | IC50 (human GAT-3; [3]): ~5 µM and ~7 µM; affinity of the taurine transporter for GABA ([1]; from Table 15): ~1 mM; IC50 (rat GAT-2): ~5 µM
92% | N=C(N)NCCS(=O)(=O)O [GES, guanidinoethanesulfonic acid] | – | – | – | – | 11% | 45% | IC50 (rat GAT-1; full competition curves, 50 nM [3H]GABA): 4840 µM
– | NCC[C@H](N)C(=O)O [L-DABA, L-(2,4)diaminobutyric acid] | 49 ± 8 | – | – | – | – | – | –
– | O=C(O)C1=CCCN(CCON=C(c2ccccc2)c2ccccc2)C1 [NNC-711] | – | – | – | – | – | – | IC50 (human GAT-3; read-out: IC50 for inhibition of [3H]GABA uptake, human GAT-3, stable cell line): 1700 ± 252 µM; IC50 (rat GAT-2; read-out: IC50 for inhibition of [3H]GABA uptake, rat GAT-2, stable cell line, 50 nM [3H]GABA): 171 ± 53 µM; selectivity for GAT-1 (rat GAT-1): 1,000 fold; IC50 (rat GAT-1): 0.38 µM
– | O=C(O)C1=CCCNC1 [guvacine] | – | – | – | – | – | – | inhibition at 10 µM (GAT-1; [2]): 41 ± 3%; IC50 (hBGT-1): > 1000 µM
– | NCCS(=O)O [hypotaurine] | – | 30 to 40 | ~90 | ~100 | 26 ± 7 (7) % | 84 ± 3 (4) % | –
– | NCCC(=O)O [β-alanine] | 11 ± 1 | 15 | 51 | 96 | – | – | IC50 (human GAT-3; [3]): ~58 µM and 58 µM; IC50 (rat GAT-2): 19 ± 7 µM; IC50 (hBGT-1; IC50 at hBGT-1): > 1000 µM; IC50 (hBGT-1; IC50 for inhibition of [3H]GABA uptake, human BGT-1, stable cell line, 50 nM [3H]GABA): 1320 ± 224 µM
– | hydroxynipecotic acid [OH-nipecotic] | – | – | – | – | – | – | % Inhibition of [3H]GABA uptake, GAT-1 (GAT-1; inhibitor 10 μM, 50 nM [3H]GABA, 10 minutes, 37° C.): 34 ± 5 (3) %; IC50 (rat GAT-1): 44 ± 8 µM

Compound | % Inhibition of [3H]taurine uptake, rB16a ([1]; inhibitor 1 mM) | inhibition at 100 µM (GAT-1; [2]) [%] | inhibition at 10 µM [1] [%] | inhibition at 100 µM [1] [%] | inhibition at 1000 µM [1] [%] | % Inhibition of [3H]taurine uptake, rB16a ([1]; inhibitor 10 μM) | % Inhibition of [3H]taurine uptake, rB16a ([1]; inhibitor 100 μM) | further results
NCCS(=O)(=O)O [taurine, 2-aminoethanesulfonic acid] | 100° % | – | 30 to 40 | ~90 | ~100 | 29 ± 8 (5) % | 83 ± 2 (5) % | VMAX of taurine transport, COS/rB16a ([1]; various concentrations of [3H]taurine, 30 seconds): 0.96±0.27 nmoles/mg protein
